According to patent US10660878B2, “Methods of treating dementia and pharmaceutical compositions thereof” (H. Lundbeck A/S, priority 2012, dated 2020):
“Also recorded” adds a separate entry of the source. Where two headings read alike, the source gives them in different places.

Tests used:
[1] = tested on: patients with Alzheimer's disease; assay: Study 12936A, adjunctive treatment to donepezil in Alzheimer's disease; assay type: in vivo, human; conditions: 90 mg daily (3×30 mg) plus 10 mg/day of donepezil
From the text: In 2012, it was reported that a randomized, double blind, placebo controlled trial conducted in Europe, Canada and Australia met its primary endpoint in the treatment of AD.
An issue for that dose selection was to ensure that the maximum exposure level fell under the maximum exposure limit which had been established from non-clinical toxicology studies. Accordingly, a fixed dose of three times in the study was introduced.
(§1) The AD study cited in the Background section is referred to in this application as study 12936A. The schizophrenia study cited in the Background section is referred to in this application as study 12450A.

5-HT6 receptor [2] = molecular target: T1, 5-HT6 receptor (Homo sapiens, UniProt P50406); assay: PK/PD Emax model of 5-HT6 occupancy fitted to PET data; assay type: in vivo; set-up: from tissue; host or cells: brain of living healthy male subjects (putamen, caudate nucleus, ventral striatum), in vivo PET; conditions: caudate nucleus region; non-linear mixed effect modelling
Procedure: In total three PET scans were performed per subject, the first at baseline, the second around tmax on last day of dosing and the last in the interval 10-51 hours post dose on the last day of dosing.
In order to allow for estimation of the inter-subject variability in the occupancy, non-linear mixed effect modelling was performed where the inter-subject variability was modelled as an exponential term on EC50.

[3] = Plasma concentration of Compound I (PK) in PET study Part B; assay type: in vivo, human; conditions: P2 scans, post-dose duration 10-51 hours
Procedure: Dosing schemes include 5 mg (5Q; Part B4) once daily or QD, 30 mg QD (30Q; Part B3), 30 mg b.i.d. (30B; Part B2), and 60 mg b.i.d (60B; Part B1). […] Model 2 was supported over Model 1 in Pu, CN, and vS by Akaike information criterion (AIC; The smaller the AIC value the better the fit) (Akaike 1974) and F-test comparing residual sums of squares (RSS) of the two models (Table 1).

[4] = tested on: patients with schizophrenia; assay: Study 12450A, adjunctive treatment to risperidone in schizophrenia; assay type: in vivo, human; conditions: 120 mg/day BID
Procedure: Overall improvement in schizophrenia symptoms was assessed by using the Positive and Negative Syndrome Scale (PANSS) total score.
as §1

5-HT6 receptor [5] = molecular target: T1, 5-HT6 receptor; assay: PET 5-HT6 receptor occupancy after multiple oral doses, [^11C]LuPET radioligand (Part B); assay type: in vivo; set-up: from tissue; host or cells: brain of living healthy male subjects (putamen, caudate nucleus, ventral striatum), in vivo PET
Procedure: (§2) As the radioligand has not previously been dosed to humans it was initially evaluated in the human brain to identify an optimal method for quantification and validate the radioligand as a PET tracer (Part A).
Eight healthy male subjects (Age: 30.6±7.7 years; range: 22-44 years) participated in Part A, and sixteen healthy male subjects (Age: 32.3±7.6 years; range: 21-44 years) participated in Part B of this study.
(§3) PET studies were performed on the GE Advance Tomograph (GE Medical Systems, Waukesha, Wis., USA). Subjects had one venous catheter for the radioligand injection, and one arterial catheter to obtain arterial blood samples for the determination of radioactivity in plasma. Then, subjects were positioned in the scanner with the head restrained with a custom-made thermoplastic mask to reduce the head motion during PET data acquisition. Then, a 10 minute attenuation scan was performed using a rotating ^68Ge source for attenuation correction. Dynamic PET acquisition was then performed in a three-dimensional mode for 90 min following an intravenous bolus injection of [^11C]LuPET. A total of 30 PET frames were obtained (4×15, 4×30, 3×60, 2×120, 5×240, and 12×300 seconds). […] Selected samples taken at 0, 5, 10, 30, 45, 60, and 90 min were analyzed by HPLC for the presence of the radioligand and its radioactive metabolites as described elsewhere (Hilton et al., 2000).
Volumes of interest (VOIs): Cortical VOIs were automatically defined using Freesurfer software and combined into standard regions including: frontal (Fr), temporal (Tp), parietal (Pa), and occipital (Oc) cortices, fusiform gyms (Fs), cingulate (Cg), and insula (In). Subcortical regions were defined with FIRST software (Patenaude et al., 2011) and manually adjusted on individual MRIs. Subcortical regions included putamen (Pu), caudate nucleus (CN), ventral striatum (vS), globus pallidus (GP), thalamus (Th), hippocampus (Hp), and amygdala (Am). VOIs were transferred from MRI to PET spaces following MRI-to-PET coregistration parameters given by SPMS (Ashbumer J, Friston 2003; Macs et al., 1997) to obtain time-activity curves (TACs) of regions. A total of 25 regions per scan were employed for methodological evaluations (Part A) while occupancy calculation was limited to Pu, CN, and vS (Part B).
Derivation of PET outcome variables: Primary PET outcome variables are total distribution volume, VT and binding potential, BPND (=fND·Bavail/KD, where fND refers to the fraction of non-displaceable compartment, Bavail stands for the density of available (unoccupied) 5-HT6 receptors, and KD stands for the dissociation constant; Innis et al., 2007).
A set of standard plasma input methods were employed to identify the optimal method for derivation of regional distribution volume (VT) for [^11C]LuPET including, a one tissue compartmental model (OTCM) with three parameters (K1, and k2′; See Koeppe et al., 1991 for the definitions, and v0, tissue vascular volume), two tissue compartmental models with five parameters (K1, k2, k3, k4, and v0; See Innis et al., 2007 for the definitions), without and with constraining the K1-k2 ratio (non-displaceable distribution volume, VND (Abi-Dargham et al., 1994) to the cerebellum estimate (TTCM-UC and TTCM-C, respectively), and the plasma reference graphical analysis (PRGA; Logan et al., 1990). In TTCM-UC and TTCM-C, BPND was given as the k3-k4 ratio.
In addition, tissue reference methods, namely the multilinear reference tissue method with 2 parameters (MRTM2; Ichise et al., 2002) and reference tissue graphical analysis (RTGA; Logan et al., 1996) were applied.
Akaike information criteria (AIC; Akaike 1974; Burnham and Anderson 2004) was used to examine goodness of fit for compartmental models and for the examination of occupancy-PK relationships using Equation 3. Results

[6] = Phase I PK study in the elderly and AD study 12936A pharmacokinetics; assay type: in vivo, human; conditions: for half-life: human, plasma, read-out: elimination half life (converted)
Procedure: In total, the dataset used in the popPK model consisted of 265 patients. The doses administered, single or multiple, were in the range of 9.0-300 mg.

[7] = Evaluation of [^11C]LuPET as PET tracer in the human brain; assay type: in vivo
Procedure: as §2
as §3, with “2000). […]” for “2000).”

5-HT6 receptor [8] = molecular target: T1, 5-HT6 receptor; assay: Displacement of [^11C]LuPET binding by olanzapine, PET (Part A); conditions: one dose of 10 mg, scan 5 hours after dose; across brain regions
From the text: In Part A, baseline scans were repeated on the same day (n=1) or separate days (n=7) ranging from 1 to 18 days apart to test reproducibility of PET outcome variables.
[formula] where superscripts indicate BPND of baseline (B) and post-dose (D), respectively.

[9] = Caudate nucleus (CN), PRGA, 3H + P2 pooled
[10] = Caudate nucleus (CN), PRGA, 3H scans
[11] = Caudate nucleus (CN), PRGA, P2 scans
[12] = Caudate nucleus (CN), RTGA, 3H + P2 pooled
[13] = Caudate nucleus (CN), RTGA, 3H scans
[14] = Caudate nucleus (CN), RTGA, P2 scans
[15] = Putamen (Pu), PRGA, 3H + P2 pooled
[16] = Ventral striatum (vS), PRGA, 3H + P2 pooled
[17] = Ventral striatum (vS), PRGA, 3H scans
[18] = Ventral striatum (vS), PRGA, P2 scans

T1 sequence (P50406 whole entry): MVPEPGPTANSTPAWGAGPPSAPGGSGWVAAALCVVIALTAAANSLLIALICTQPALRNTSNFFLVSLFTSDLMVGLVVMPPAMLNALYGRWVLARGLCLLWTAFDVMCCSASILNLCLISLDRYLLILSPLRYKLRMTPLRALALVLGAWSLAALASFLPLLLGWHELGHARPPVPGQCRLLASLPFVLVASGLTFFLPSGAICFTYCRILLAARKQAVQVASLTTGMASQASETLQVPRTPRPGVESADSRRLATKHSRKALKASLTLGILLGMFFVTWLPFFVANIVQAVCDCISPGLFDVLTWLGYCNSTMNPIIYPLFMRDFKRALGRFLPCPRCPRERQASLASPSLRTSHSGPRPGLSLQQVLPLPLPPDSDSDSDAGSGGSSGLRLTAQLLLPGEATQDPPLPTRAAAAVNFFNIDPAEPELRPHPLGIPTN

With Fc1ccc2c(CCNCc3cccc(OCC(F)(F)C(F)F)c3)c[nH]c2c1 [Compound I, N-[2-(6-fluoro-1H-indol-3-yl)ethyl]-3-(2,2,3,3-tetrafluoropropoxy)benzylamine] the “secondary endpoints (global impression, daily living activities) vs donepezil treated patients” value [1] was “positive results”, the “cognitive function (ADAS-cog) vs placebo plus donepezil” value ([1]; 278 patients) was “significantly improved” and the “Emax (maximal occupancy)” value (5-HT6 receptor [2]) was 91%. The “PK range (plasma concentration)” value [3] was 0.54 to 204 ng/mL, the “PANSS total score vs placebo” value [4] was “did not offer any treatment advantage over placebo” and the “overall neurocognitive performance (BACS composite Z-score, PANSS cognitive subscale scores) vs placebo” value [4] was “did not appear to be any treatment advantage over placebo”. For the same compound, the receptor occupancy at 30 mg (5-HT6 receptor [5]; 30 mg BID, at Cmax) was > 85%, the receptor occupancy at 30 mg (5-HT6 receptor [5]; 30 mg QD, at Cmax) was ~80% and the receptor occupancy at 60 mg (5-HT6 receptor [5]; 60 mg BID, at Cmax) was > 90%. For the same compound, the “PK values predicted to generate 80% occupancy” value (5-HT6 receptor [5]; CN and vS by PRGA) was “about 120 ng/mL”, the “PK values predicted to generate 80% occupancy” value (5-HT6 receptor [5]; CN by RTGA) was “about 100 ng/mL” and the “80% RO (PK predicted to exert 80% occupancy)” value (5-HT6 receptor [5]; [9]) was 51.1 ng/mL. For the same compound, the Omax (5-HT6 receptor [5]; [9]) was 91.3%, the “80% RO (PK predicted to exert 80% occupancy)” value (5-HT6 receptor [5]; [10]) was 50.1 ng/mL and the Omax (5-HT6 receptor [5]; [10]) was 90.3%. For the same compound, the “80% RO (PK predicted to exert 80% occupancy)” value (5-HT6 receptor [5]; [11]) was 48.0 ng/mL, the Omax (5-HT6 receptor [5]; [11]) was 93.9% and the “80% RO (PK predicted to exert 80% occupancy)” value (5-HT6 receptor [5]; [12]) was 108.4 ng/mL. The Omax (5-HT6 receptor [5]; [12]) was 85.7%, the “80% RO (PK predicted to exert 80% occupancy)” value (5-HT6 receptor [5]; [13]) was 102.8 ng/mL and the Omax (5-HT6 receptor [5]; [13]) was 85.2%. The “80% RO (PK predicted to exert 80% occupancy)” value (5-HT6 receptor [5]; [14]) was 101.5 ng/mL, the Omax (5-HT6 receptor [5]; [14]) was 87.1% and the “PK values predicted to generate 80% occupancy” value (5-HT6 receptor [5]; Pu by PRGA) was “about 50 ng/mL”. For the same compound, the “80% RO (PK predicted to exert 80% occupancy)” value (5-HT6 receptor [5]; [15]) was 131.7 ng/mL, the Omax (5-HT6 receptor [5]; [15]) was 83.2% and the “80% RO (PK predicted to exert 80% occupancy)” value (5-HT6 receptor [5]; Putamen (Pu), PRGA, 3H scans) was 137.8 ng/mL. For the same compound, the Omax (5-HT6 receptor [5]; Putamen (Pu), PRGA, 3H scans) was 82.8%, the “80% RO (PK predicted to exert 80% occupancy)” value (5-HT6 receptor [5]; Putamen (Pu), PRGA, P2 scans) was 116.7 ng/mL and the Omax (5-HT6 receptor [5]; Putamen (Pu), PRGA, P2 scans) was 83.8%. It also gave an Omax (5-HT6 receptor [5]; Putamen (Pu), RTGA, 3H + P2 pooled) of 77.3%, an Omax (5-HT6 receptor [5]; Putamen (Pu), RTGA, 3H scans) of 7.5% and an Omax (5-HT6 receptor [5]; Putamen (Pu), RTGA, P2 scans) of 76.6%. The “80% RO (PK predicted to exert 80% occupancy)” value (5-HT6 receptor [5]; [16]) was 121.0 ng/mL, the Omax (5-HT6 receptor [5]; [16]) was 86.0% and the “80% RO (PK predicted to exert 80% occupancy)” value (5-HT6 receptor [5]; [17]) was 66.5 ng/mL. For the same compound, the Omax (5-HT6 receptor [5]; [17]) was 85.5%, the “80% RO (PK predicted to exert 80% occupancy)” value (5-HT6 receptor [5]; [18]) was 133.5 ng/mL and the Omax (5-HT6 receptor [5]; [18]) was 89.7%. For the same compound, the Omax (5-HT6 receptor [5]; Ventral striatum (vS), RTGA, 3H + P2 pooled) was 76.5%, the Omax (5-HT6 receptor [5]; Ventral striatum (vS), RTGA, 3H scans) was 78.2% and the Omax (5-HT6 receptor [5]; Ventral striatum (vS), RTGA, P2 scans) was 72.1%. The “5-HT6 receptor occupancy 24 hours post dose” value (5-HT6 receptor [5]; after multiple dosages, 24 hours post dose vs Cmax) was “only decreased slightly; also recorded: maintained”, the Omax (5-HT6 receptor [5]; oral administration, overall study estimate based on Pu and CN) was “about 90%” and the clearance ([6]; elderly compared to younger subjects) was “reduced”. It also gave a half-life ([6]; elderly population) of ~19 h and a half-life ([6]; young healthy subjects) of ~12 h.
With [11CH3]N1CCN(c2cccc3cc(S(=O)(=O)c4ccccc4)cnc23)CC1 [[^11C]LuPET] the “k2 (brain-to-blood clearance rate constant)” value ([7]; cerebellum (Cb), mean across baseline scans, TTCM-UC) was 0.076 min⁻¹ and the “distribution volume VT” value ([7]; striatum target regions) was ~10 mL/mL.
In the case of Cc1cc2c(s1)Nc1ccccc1N=C2N1CCN(C)CC1 [olanzapine], the “displacement of binding of [^11C]LuPET” value (5-HT6 receptor [8]) is reported as “about 80%”.
